Values quoted from earlier work in US11039992B2, “Stable redox compositions and methods of use” (Reoxcyn, LLC, priority 2017, dated 2021).

Details: pH-neutral aqueous solution (pH around 7.0) at room temperature

For O=[O+][O-] [ozone], the half-life is listed as “about 20 minutes”.
